Test results from patent US20110289042A1, “Integrative Framework for Three-Stage Integrative Pathway Search” (BOARD OF TRUSTEES OF MICHAGN STATE UNIVERSITY, priority 2005, published 2011).
Read-outs that look alike come from different tables or passages of the source.

Columns and labels:
Type in all cases: cell-based, human
[1] = system: phospho-P65 NF-κB; assay: phospho-P65 NF-κB by western blot in HepG2 cells
Experimental: Therefore, we tested the possibility of this link in HepG2 cells by adding rottlerin, an inhibitor of PKC-δ, and measuring the protein expression and activity levels of NF-κB with western blots. […] This confirmed the connection between TNF-α and PKC-δ in the reconstructed network (model). To determine whether PKC-δ is involved in mediating the activation of NF-κB by TNF-α, PKC-δ was inhibited by a PKC-δ specific inhibitor rottlerin. The activity of NF-κB was measured with western blots by detecting the levels of phosphorylated NF-κB p65 at serine 536 [Sakurai et al. 2003]. As shown in FIG. 6(A), the activation of NF-κB p65 was attenuated by rottlerin. […] Therefore, PKC-δ was appropriately identified by the model to be an important factor in mediating the TNF-α signaling pathway.
PKC-δ was inhibited with rottlerin (BIOMOL Research Laboratories, Plymouth Meeting, Pa.). […] After 48 hours of exposure, cells were lysated with 1× SDS sample buffer. After ultrasonication for 11-15 seconds, the suspension was centrifuged (10,000 relative centrifugal force (rcf), 5 minutes). The supernatant was run on 7.5% gradient SDS-PAGE, transferred to a nitrocellulose membrane, blocked for 1 hour at room temperature with 5% milk protein solution in Tris buffered saline with Tween 20, and exposed to monoclonal anti-phospho NF-κB (65 kDa subunit) (Cell Signaling Technology Inc., MA) at 1:2000 dilution overnight at 4° C. The blot was washed and put in rabbit anti-mouse IgG secondary antibody (1:2000 dilution in TBS-Tween) for 1 hour. The blot was washed thrice each in TBS-Tween and TBS and developed using Supersignal West Femto Substrate (Pierce Chemicals), and imaged with Bio-Rad imager.
Bcl-2 was inhibited with HA14-1 (BIOMOL Research Laboratories, Plymouth Meeting, Pa.) at 10 μM. The phospho-NF-κB p65 was detected with monoclonal anti-phospho NF-κB (65 kDa subunit) (Cell Signaling Technology Inc., Danvers, Mass., US) at 1:2000 dilution.

[2] = system: Hep G2/C3A cells
Experimental: Cell Culture. 1 million Hep G2/C3A cells (ATCC, Manassas, Va.) were seeded into each well of 6-well culture plate. The cells were kept in 2 mL of medium containing Dulbecco's modified Eagles medium (Invitrogen, Carlsbad, Calif.) supplemented with 10% fetal bovine serum (ATCC) and 2% Penicillin-streptomycin (Invitrogen). Cells were incubated at 37° C. and in 10% CO2 atmosphere. After cells reached confluence, the medium was replaced with 2 mL of treatment of FFA including palmitate (700 μM), oleate (700 μM), linoleate (700 μM) and TNF-α (0, 20, 100 ng/mL′)
Cytotoxicity measurement. […] Cells were washed with phosphate buffered saline (PBS) and kept in 1% Triton-X-100 in PBS for 24 h at 37° C. Cell lysate was then collected, vortexed for 15 seconds, and centrifuged at 7000 rpm for 5 minutes. Cytotoxicity detection kit (Roche Applied Science, Indianapolis, Ind.) was used to measure the LDH release. LDH released was normalized to the total LDH (released+lyzed).

[3] = system: stearoyl-CoA desaturase (SCD); assay: SCD protein expression by western blot in HepG2 cells
Experimental: The protein expression level of SCD in HepG2 cells cultured in control (HepG2 medium), palmitate, oleate, palmitate+oleate, mediums were measured as a function of TNF-α with western blots.

[4] = system: Bcl-2; assay: Bcl-2 protein expression by western blot in HepG2 cells
Experimental: Cells cultured in mediums of HepG2, Palmitate, Oleate, Palmitate (400 μM)+Oleate medium (300 μM) were lysated as described before. The protein samples were run on 10-20% gradient SDS-PAGE. Bcl-2 was probed with Bcl-2 antibody (1:1000) (Cell Signaling Technology, Inc., Danvers, Mass., US) as the primary antibody and goat anti-rabbit IgG as the second antibody at 1:1000 dilution.

[5] = system: PKC-δ; assay: PKC-δ expression by western blot in HepG2 cells; details: TNF-α 20 and 100 ng/mL; control, palmitate and oleate cultures
Experimental: PKC-δ Inhibiting Analysis. The levels of PKC-δ in HepG2, palmitate (700 μM), oleate (700 μM) and palmitate (400 μM)+oleate medium (300 μM) with TNF-α supplementation of 0, 20, 100 ng/mL were detected with western blotting using anti-PKC-δ antibody (Santa Cruz Biotechnology, Inc., Santa Cruz, Calif., US) at 1:2000 dilution.

[6] = system: SCD gene expression; assay: SCD gene expression by cDNA microarray in HepG2 cells; details: TNF-α in HepG2 cells; log 2(treatment/control)
Experimental: Gene expression profiling. Cells were cultured in 10 cm tissue culture plates until confluence and then exposed to different treatments. RNA was isolated with Trizol reagent. The gene expression profiling was obtained with cDNA microarray. Analyses were done at the Van Andel Institute, Grand Rapids, Mich. The protocols are available online at (http://microarray.vai.org/protocols/). There were two biological replicates for each condition and each replicate was measured with the Cy3 and Cy5 dyes.

For CCOC(=O)C1=C(N)Oc2ccc(Br)cc2C1C(C#N)C(=O)OCC (stereo not shown) [HA14-1], the “activation of phospho-P65 NF-κB” value ([1]; 10 μM, control, palmitate, oleate and palmitate+oleate co-supplementation cultures) was “attenuated the activation of phospho-P65 NF-κB”.
In the case of CC(=O)N[C@@H](CS)C(=O)O [N-acetyl cysteine], the “LDH release in palmitate culture” value ([2]; co-supplementation of 10 mM) is reported as “reduced LDH release” and the “SCD protein expression in palmitate culture” value ([3]; co-supplementation of 10 mM) is reported as “prevented the SCD down-regulation”.
For O=C1Nc2ccc3ncsc3c2/C1=C/c1cnc[nH]1 [PKR inhibitor], the LDH release ([2]; PKR inhibitor 6 μM in control culture medium, 3% without inhibitor) was 25% and the Bcl-2 expression ([4]; 6 μM in culture medium of control) was “decreased the Bcl-2 expression”.
CC(C)(Oc1ccc(C2CC2(Cl)Cl)cc1)C(=O)O (stereo not shown) [ciprofibrate] was tested, and the “LDH release in palmitate culture” value ([2]; 6 hours pretreatment followed by 48 hours co-supplementation of 50 μM, palmitate culture) was “significantly decrease LDH release”.
For CC(=O)c1c(O)c(C)c(O)c(Cc2c(O)c3c(c(C(=O)/C=C/c4ccccc4)c2O)OC(C)(C)C=C3)c1O [rottlerin], the “increase of LDH release in the palmitate cultures” value ([2]; rottlerin added to palmitate cultures) was “up to 25%” and the “TNF-α-induced activation of phospho-P65 NF-κB” value ([1]; rottlerin 5 μM, 0, 20 or 100 ng/mL TNF-α) was “this activation was attenuated”.
With TNF-α the cytotoxicity [2] was “cytotoxic”, the “LDH release in control culture” value ([2]; TNF-α in control culture) was “did not affect LDH release” and the cytotoxicity ([2]; record 2) was “cytoprotective”. The SCD protein expression ([3]; TNF-α, control, oleate and co-supplementation cultures) was “decreased the expression of SCD”, the “phospho-P65 NF-κB” value ([1]; TNF-α 0, 20 or 100 ng/mL) was “activated phospho-P65 NF-κB” and the Bcl-2 expression ([4]; TNF-α 20-100 ng/mL, control, palmitate and oleate cultures) was “down-regulated”. For the same compound, the “expression of PKC-δ 41 kDa catalytically active fragment” value [5] was “increased” and the “gene expression of SCD” value [6] was “upregulated”.
